The record followed here is patent US20260257998A1, “ERR MODULATORS” (University of Health Sciences and Pharmacy in St. Louis, priority 2023, published 2026).

The target in one assay is T1, ERRα (Homo sapiens, UniProt P11474).
T1 construct: expressed in transfected cells; host or cells: HEK293
T1 sequence (P11474 1-423): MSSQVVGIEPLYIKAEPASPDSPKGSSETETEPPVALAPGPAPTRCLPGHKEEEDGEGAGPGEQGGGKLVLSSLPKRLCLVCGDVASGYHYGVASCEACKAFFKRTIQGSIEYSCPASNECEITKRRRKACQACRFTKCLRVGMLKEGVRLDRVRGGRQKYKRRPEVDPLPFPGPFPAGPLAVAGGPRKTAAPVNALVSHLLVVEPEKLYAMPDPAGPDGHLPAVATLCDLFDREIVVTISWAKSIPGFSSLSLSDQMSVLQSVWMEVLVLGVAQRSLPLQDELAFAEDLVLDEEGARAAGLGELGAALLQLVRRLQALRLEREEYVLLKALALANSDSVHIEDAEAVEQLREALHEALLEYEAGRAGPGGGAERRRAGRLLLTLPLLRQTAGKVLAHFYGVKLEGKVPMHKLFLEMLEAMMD
Briefly: ERRE luciferase reporter assay in HEK293 cells transfected with pcDNA3.1 ERRα. The assay is classed as cell-based. Also on record: key to EC50 (ERRα): ***<1 μM; **1-5 μM; *>5 μM; i.a. (inactive). The note with it: 24 hours treatment, luciferase activity. How it is done:
(§1) HEK293 cells were maintained in Dulbecco's modified Eagles medium (DMEM) supplemented with 10% fetal bovine serum at 37° C. under 5% CO2. […] Cells were transfected with ERRE reporter construct and pcDNA3.1 ERRα or ERRγ. Twenty-four-hours post-transfection, the cells were treated with vehicle or compound (various concentrations) for 24 hours (4 wells per dose). Luciferase activity was measured using the One-Glo Tox luciferase reporter assay system (Promega) and […] were calculated using GraphPad Prism software.
(In general: In a reporter assay the amount or activity of a reporter protein is the signal.)

Another assay has as its target T2, ERRγ (Homo sapiens, UniProt P62508).
T2 construct: expressed in transfected cells; host or cells: HEK293
T2 sequence (P62508 1-458): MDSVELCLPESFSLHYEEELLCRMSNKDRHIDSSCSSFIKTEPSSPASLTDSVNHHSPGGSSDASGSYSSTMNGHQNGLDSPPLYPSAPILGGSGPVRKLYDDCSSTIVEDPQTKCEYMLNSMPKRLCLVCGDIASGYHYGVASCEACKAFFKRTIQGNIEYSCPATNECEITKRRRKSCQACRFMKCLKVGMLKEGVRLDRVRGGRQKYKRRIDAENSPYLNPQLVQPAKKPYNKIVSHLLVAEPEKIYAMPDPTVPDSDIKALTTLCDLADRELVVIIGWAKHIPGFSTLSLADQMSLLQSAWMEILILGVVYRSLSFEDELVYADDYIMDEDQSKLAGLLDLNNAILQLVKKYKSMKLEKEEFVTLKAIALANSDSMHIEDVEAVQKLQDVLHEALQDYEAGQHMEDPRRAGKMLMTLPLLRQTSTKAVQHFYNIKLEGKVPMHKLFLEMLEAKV
As to the kind of experiment: ERRE luciferase reporter assay in HEK293 cells transfected with pcDNA3.1 ERRγ. The assay is classed as cell-based. Also on record: key to EC50 (ERRγ): ***<1 μM; **1-5 μM; *>5 μM; i.a. (inactive). The note with it: 24 hours treatment, luciferase activity. Here is the method:
as §1

For `Fc1cccc(C2=NNC(c3ccc4ccccc4c3)C2)c1` (centres unmarked) [Entry 88, 3-(3-fluorophenyl)-5-(naphthalen-2-yl)-4,5-dihydro-1H-pyrazole], at ERRα, the “EC50 (ERRα)” value is reported as “i.a”. Besides, the EC50 (usually the concentration at which the effect is half-maximal) at ERRγ lay within 1 to 5 µM.
In the case of `CCc1ccccc1C1CC(c2ccccc2O)=NN1` (centres unmarked) [Entry 22, 2-(5-(2-Ethylphenyl)-4,5-dihydro-1H-pyrazol-3-yl)phenol], at ERRα, the “EC50 (ERRα)” value is recorded as “i.a”. The “EC50 (ERRγ)” value at ERRγ is given as “i.a”.
Take `Cc1ccc(O)c(C2CC(c3ccc(Cl)cc3Cl)=NN2)c1` (centres unmarked) [Entry 49, 2-(3-(2,4-Dichlorophenyl)-4,5-dihydro-1H-pyrazol-5-yl)-4-methylphenol]: at ERRα, the “EC50 (ERRα)” value is on record as “i.a”. The “EC50 (ERRγ)” value on ERRγ is “i.a”.
On to `Nc1ccccc1C1CC(c2ccccc2)=NN1` (centres unmarked) [Entry 37, 2-(3-Phenyl-4,5-dihydro-1H-pyrazol-5-yl)aniline], for which the EC50 on ERRα and at ERRγ was below 1 µM in each case.
Regarding `Oc1cccc(C2CC(c3ccccc3O)=NN2)c1` (centres unmarked) [Entry 18, 2-(5-(3-Hydroxyphenyl)-4,5-dihydro-1H-pyrazol-3-yl)phenol], the EC50 at ERRα and at ERRγ was 1 to 5 µM in each case.
Take `Oc1ccc(C2CC(c3cccc(Br)c3)=NN2)cc1` (centres unmarked) [Entry 84, 4-(3-(3-bromophenyl)-4,5-dihydro-1H-pyrazol-5-yl)phenol]: the EC50 on ERRα and on ERRγ was above 5 µM each time.
Take `Fc1ccccc1C1=NNC(c2ccc(Cl)c(Cl)c2)C1` (centres unmarked) [Entry 110, 5-(3,4-dichlorophenyl)-3-(2-fluorophenyl)-4,5-dihydro-1H-pyrazole]: the “EC50 (ERRα)” value at ERRα is recorded as “i.a”. For the same molecule, the “EC50 (ERRγ)” value at ERRγ is listed as “i.a”.
As to `COc1cccc(C2CC(c3ccc(Br)cc3)=NN2)c1O` (centres unmarked) [Entry 36, 2-(3-(4-Bromophenyl)-4,5-dihydro-1H-pyrazol-5-yl)-6-methoxyphenol], the 50% effective concentration (EC50) at ERRα and at ERRγ was below 1 µM throughout.
On to `Oc1cccc(C2=NNC(c3cnc[nH]3)C2)c1` (centres unmarked) [Entry 102, 3-(5-(1H-imidazol-5-yl)-4,5-dihydro-1H-pyrazol-3-yl)phenol], for which the EC50 on ERRα and on ERRγ was above 5 µM throughout.
For the molecule `Oc1ccccc1C1CC(c2cc(C(F)(F)F)cc(C(F)(F)F)c2)=NN1` (centres unmarked) [Entry 6, 2-(3-(3,5-bis(trifluoromethyl)phenyl)-4,5-dihydro-1H-pyrazol-5-yl)phenol], the “EC50 (ERRα)” value on ERRα is given as “i.a”. Moreover, the “EC50 (ERRγ)” value at ERRγ is on record as “i.a”.
Take `Oc1ccc(C2CC(c3cccc(O)c3)=NN2)cc1` (centres unmarked) [Entry 100, 3-(5-(4-hydroxyphenyl)-4,5-dihydro-1H-pyrazol-3-yl)phenol]: the concentration giving a half-maximal response (EC50) on ERRα and on ERRγ was 1 to 5 µM each time.
As for `Brc1ccc(C2=NNC(c3ccc(Br)cc3)C2)cc1` (centres unmarked) [Entry 113, 3,5-bis(4-bromophenyl)-4,5-dihydro-1H-pyrazole], the “EC50 (ERRα)” value at ERRα is listed as “i.a”. Moreover, at ERRγ, the “EC50 (ERRγ)” value is “i.a”.
Regarding `Oc1ccc(C2=NNC(c3ccc(Br)cc3)C2)cc1` (centres unmarked) [Entry 89, 4-(5-(4-bromophenyl)-4,5-dihydro-1H-pyrazol-3-yl)phenol], the concentration giving a half-maximal response (EC50) at ERRα and at ERRγ was above 5 µM throughout.
As to `FC(F)(F)c1cc(C2=NNC(c3ccc(Cl)cc3)C2)cc(C(F)(F)F)c1` (centres unmarked) [Entry 68, 3-(3,5-bis(trifluoromethyl)phenyl)-5-(4-chlorophenyl)-4,5-dihydro-1H-pyrazole], the “EC50 (ERRα)” value on ERRα is given as “i.a”. On ERRγ, the “EC50 (ERRγ)” value is “i.a”.
As to `Oc1c(Br)cc(Br)cc1C1CC(c2ccc3ccccc3c2)=NN1` (centres unmarked) [Entry 116, 2,4-dibromo-6-(3-(naphthalen-2-yl)-4,5-dihydro-1H-pyrazol-5-yl)phenol], the “EC50 (ERRα)” value at ERRα is recorded as “i.a”. For the same molecule, the “EC50 (ERRγ)” value on ERRγ was “i.a”.
Take `Oc1ccc2cc(C3CC(c4ccc(Br)cc4)=NN3)ccc2c1` (centres unmarked) [Entry 93, 6-(3-(4-bromophenyl)-4,5-dihydro-1H-pyrazol-5-yl)naphthalen-2-ol]: the “EC50 (ERRα)” value on ERRα is reported as “i.a”. The “EC50 (ERRγ)” value at ERRγ is “i.a”.
Take `Fc1ccccc1C1=NNC(c2ccc3ccccc3c2)C1` (centres unmarked) [Entry 106, 3-(2-fluorophenyl)-5-(naphthalen-2-yl)-4,5-dihydro-1H-pyrazole]: the EC50 at ERRα and at ERRγ was below 1 µM throughout.
For `Oc1cccc(C2=NNC(c3ccc4ccccc4c3)C2)c1` (centres unmarked) [Entry 99, 3-(5-(naphthalen-2-yl)-4,5-dihydro-1H-pyrazol-3-yl)phenol], the concentration giving a half-maximal response (EC50) on ERRα and at ERRγ was 1 to 5 µM each time.
In the case of `Cc1ccccc1C1=NNC(c2ccccc2O)C1` (centres unmarked) [Entry 27, 2-(3-(o-Tolyl)-4,5-dihydro-1H-pyrazol-5-yl)phenol], at ERRα, the “EC50 (ERRα)” value is “i.a”. At ERRγ, the “EC50 (ERRγ)” value is on record as “i.a”.
Consider `Oc1ccc(C2CC(c3ccc(C(F)(F)F)cc3)=NN2)cc1` (centres unmarked) [Entry 73, 4-(3-(4-(trifluoromethyl)phenyl)-4,5-dihydro-1H-pyrazol-5-yl)phenol], for which the half-maximal effective concentration (EC50) on ERRα and on ERRγ was 1 to 5 µM throughout.
For `Oc1ccccc1C1CC(c2cccc(Br)c2)=NN1` (centres unmarked) [Entry 29, 2-(3-(3-Bromophenyl)-4,5-dihydro-1H-pyrazol-5-yl)phenol], the EC50 on ERRα and at ERRγ was above 5 µM each time.
In the case of `COc1cccc(C2=NNC(c3ccccc3O)C2)c1` (centres unmarked) [Entry 62, 2-(3-(3-methoxyphenyl)-4,5-dihydro-1H-pyrazol-5-yl)phenol], the concentration giving a half-maximal response (EC50) on ERRα was in the range of 1 to 5 µM. The “EC50 (ERRγ)” value at ERRγ is “i.a”.
Regarding `Oc1cccc(C2CC(c3ccccc3F)=NN2)c1` (centres unmarked) [Entry 90, 3-(3-(2-fluorophenyl)-4,5-dihydro-1H-pyrazol-5-yl)phenol], the half-maximal effective concentration (EC50) on ERRα and at ERRγ was 1 to 5 µM each time.
With `Cc1ccc(O)c(C2CC(c3ccccc3)=NN2)c1` (centres unmarked) [Entry 39, 4-Methyl-2-(3-phenyl-4,5-dihydro-1H-pyrazol-5-yl)phenol], the EC50 on ERRα and on ERRγ was below 1 µM throughout.
In the case of `FC(F)(F)c1ccc(C2=NNC(c3ccc(Br)cc3)C2)cc1` (centres unmarked) [Entry 114, 5-(4-bromophenyl)-3-(4-(trifluoromethyl)phenyl)-4,5-dihydro-1H-pyrazole], at ERRα, the “EC50 (ERRα)” value was “i.a”. Also, the “EC50 (ERRγ)” value at ERRγ is reported as “i.a”.
With `Oc1ccccc1C1CC(c2cccnc2)=NN1` (centres unmarked) [Entry 26, 2-(3-(Pyridin-3-yl)-4,5-dihydro-1H-pyrazol-5-yl)phenol], the concentration for a half-maximal effect (EC50) at ERRα and at ERRγ was above 5 µM each time.
On to `Clc1ccc(C2=NNC(c3ccc4ccccc4c3)C2)cc1` (centres unmarked) [Entry 104, 3-(4-chlorophenyl)-5-(naphthalen-2-yl)-4,5-dihydro-1H-pyrazole], for which the “EC50 (ERRα)” value on ERRα is reported as “i.a”. The “EC50 (ERRγ)” value at ERRγ is “i.a”.
With `Oc1ccccc1C1CC(c2ccncc2)=NN1` (centres unmarked) [Entry 2, 2-(3-(pyridin-4-yl)-4,5-dihydro-1H-pyrazol-5-yl)phenol], the “EC50 (ERRα)” value at ERRα is on record as “i.a”. For the same molecule, the EC50 on ERRγ was above 5 µM.
Turning to `Oc1ccccc1C1CC(c2ccccc2OC(F)(F)F)=NN1` (centres unmarked) [Entry 4, 2-(3-(2-(trifluoromethoxy)phenyl)-4,5-dihydro-1H-pyrazol-5-yl)phenol], the “EC50 (ERRα)” value at ERRα was “i.a”. In addition, the “EC50 (ERRγ)” value on ERRγ is “i.a”.
As for `COc1ccccc1C1=NNC(c2ccccc2O)C1` (centres unmarked) [Entry 53, 2-(3-(2-Methoxyphenyl)-4,5-dihydro-1H-pyrazol-5-yl)phenol], the EC50 on ERRα and on ERRγ was 1 to 5 µM each time.
Turning to `Oc1ccccc1C1=NNC(c2ncc[nH]2)C1` (centres unmarked) [Entry 92, 2-(5-(1H-imidazol-2-yl)-4,5-dihydro-1H-pyrazol-3-yl)phenol], the EC50 at ERRα was above 5 µM; at ERRγ it was 1 to 5 µM.
Turning to `Oc1cccc(C2=NNC(c3ccc4cc(O)ccc4c3)C2)c1` (centres unmarked) [Entry 94, 6-(3-(3-hydroxyphenyl)-4,5-dihydro-1H-pyrazol-5-yl)naphthalen-2-ol], on ERRα, the concentration giving a half-maximal response (EC50) is 1 to 5 µM. The “EC50 (ERRγ)” value on ERRγ was “i.a”.
As to `Oc1ccc(C2CC(c3ccc(F)cc3)=NN2)cc1` (centres unmarked) [Entry 85, 4-(3-(4-fluorophenyl)-4,5-dihydro-1H-pyrazol-5-yl)phenol], the EC50 on ERRα and on ERRγ was above 5 µM in each case.
For the molecule `FC(F)(F)c1ccc(C2=NNC(c3ccc4ccccc4c3)C2)cc1` (centres unmarked) [Entry 72, 5-(naphthalen-2-yl)-3-(4-(trifluoromethyl)phenyl)-4,5-dihydro-1H-pyrazole], on ERRα, the “EC50 (ERRα)” value is “i.a”. For the same molecule, the “EC50 (ERRγ)” value at ERRγ is reported as “i.a”.
